In patent US8680288B2, “Pyridin-2yl sulfanyl acid esters and process for the preparation thereof” (Council of Scientific & Industrial Research, priority 2010, dated 2014):
“Also recorded” adds a separate entry of the source. Where two headings read alike, the source gives them in different places.

Legend:
[1] = tested on: human umbilical vein endothelial cell (HUVEC); assay: Cell viability (MTT) assay on endothelial cells; format: cell-based; settings: Concentration of compounds where >95% cells are viable
Description: (§1) Primary endothelial cells were isolated from human umbilical cord using mild trypsinization (Kumar, S., Arya, P., Mukherjee, C., Singh, B. K., Singh, N., Parmar, V. S., Prasad, A. K., Ghosh, B. Novel Aromatic Ester from Piper longum and Its Analogues Inhibit Expression of Cell Adhesion Molecules on Endothelial Cells. Biochemistry. 2005, 44, 15944-15952). The cells were grown in M199 medium (Sigma, USA) supplemented with 15% heat inactivated fetal calf serum (Biological Industries, Israel), 2 mM L-glutamine (Sigma, USA), 100 units/ml penicillin (Sigma, USA), 100 μg/ml streptomycin (Sigma, USA), 0.25 μg/ml amphotericin B (Sigma, USA), endothelial cell growth factor (50 μg/ml) (Sigma, USA). At confluence, the cells were subcultured using 0.05% trypsin-0.01 M EDTA solution and were used between passages three to four.
The cytotoxicity of these compounds was analyzed by colorimetric MTT (methylthiazolydiphenyl-tetrazolium bromide, Sigma, USA) assay as described (Kumar S et al, 2005). Briefly, endothelial cells were treated with DMSO alone (0.25%, as vehicle) or with different concentrations of compounds for 24 hrs. Four hrs before the end of incubation, medium was removed and 100 μl MTT (5 mg/ml in serum free medium) was added to each well. The MTT was removed after 4 hrs, cells were washed out with PBS (phosphate buffered saline, pH 7.4), and 100 μl DMSO was added to each well to dissolve water insoluble MTT-formazan crystals. Absorbance was recorded at 570 nm in an ELISA reader (Bio-Rad, Model 680, USA). All experiments were performed at least 3 times in triplicate wells.

[2] = tested on: ICAM-1 (Intercellular cell adhesion molecule-1); assay: Cell-ELISA for measurement of LPS-induced ICAM-1 expression on endothelial cells; format: cell-based; settings: LPS (1 μg/ml) 16 hrs, human endothelial cells, read-out: ICAM-1 inhibition IC50
Description: as §1
Cell-ELISA was used for measuring the expression of ICAM-1 on surface of endothelial cells (Kumar S et al, 2005) Endothelial cells were incubated with or without the test compounds at desired concentrations for the required period, followed by treatment with LPS (1 μg/ml) (BD, USA) for 16 hrs for ICAM-1 expression. The cells were fixed with 1.0% glutaraldehyde (Sigma, USA). Non-specific binding of antibody was blocked by using skimmed milk (3.0% in PBS). Cells were incubated overnight at 4° C. with anti-ICAM-1 mAb (BD, USA), diluted in blocking buffer, the cells were further washed with PBS and incubated with peroxidase-conjugated goat anti-mouse secondary antibody (Sigma, USA). After washings, cells were exposed to the peroxidase substrate (o-phenylenediamine dihydrochloride 40 mg/100 ml in citrate phosphate buffer, pH 4.5). Reaction was stopped by the addition of 2 N sulfuric acid and absorbance at 490 nm was measured using microplate reader (Spectramax 190, Molecular Devices, USA).

[3] = tested on: adhesion of neutrophils onto human umbilical vein endothelial cells (HUVECs); assay: Neutrophil adhesion assay on LPS-induced endothelial cells (static conditions); format: cell-based; settings: LPS (1 μg/ml) 6 hrs; for IC50: HUVEC, read-out: Neutrophil Adhesion Inhibition IC50
Description: as §1
Neutrophils were isolated from peripheral blood of healthy individuals (Kumar S et al, 2005). Blood was collected in heparin solution (20 U/ml) and erythrocytes were removed by sedimentation against 6% dextran solution. Plasma, rich in white blood cells, was layered over Ficoll-Hypaque solution (Sigma, USA), followed by centrifugation (300 g for 20 min, 20° C.). The top saline layer and the Ficoll-Hypaque layer were aspirated leaving neutrophils/RBC pellet. The residual red blood cells were removed by hypotonic lysis. Isolated cells were washed with PBS and resuspended in PBS containing 5 mM glucose, 1 mM CaCl2, and 1 mM MgCl2 at a final concentration of 6×10^5 cells/ml.
Neutrophil adhesion assay was performed under static conditions as described previously (Kumar S et al, 2005). Briefly, endothelial cells plated in 96-well culture plates were incubated with or without RS—Z at desired concentrations for 2 hrs, followed by induction with LPS (1 μg/ml) for 6 hrs. Endothelial monolayers were washed with PBS and neutrophils (6×10^4/well) were added over it and were allowed to adhere for 1 hr at 37° C. The non-adherent neutrophils were washed with PBS and neutrophils bound to endothelial cells were assayed by adding a substrate solution consisting of o-phenylenediamine dihydrochloride (40 mg/100 ml in citrate phosphate buffer, pH 4.5), 0.1% cetrimethyl ammonium bromide, and 3-amino-1,2,4 triazole (1 mM). The absorbance was read at 490 nm using an automated microplate reader (Model 680, Bio-Rad, USA).

acute lung Injury model = settings: literature reference; cited from earlier work
[4] = tested on: LPS induced acute lung injury; assay: LPS aerosol induced acute lung injury model in mice (BALF cell counts, lung injury score); format: in vivo; settings: for Neutrophil count in the BALF / neutrophil influx in the lungs / Lung injury score / LPS-induced lung injury: post-treatment i.p. 0.1, 1.0 and 10 mg/kg; for Neutrophil count in the BALF / neutrophil influx in the lungs: FIG. 2B; for Lung injury score / LPS-induced lung injury: FIG. 3
Description: BALB/c male mice 10 weeks old were randomly divided into 5 groups with 6 mice in each group.
Group 1: saline challenged/vehicle (0.25% CMC) treated
Group 2: LPS challenged/vehicle treated
Group 3: LPS challenged/RS—Z (0.1 mg/kg in 0.25% CMC) treated
Group 4: LPS challenged/RS—Z (1 mg/kg in 0.25% CMC) treated
Group 5: LPS challenged/RS—Z (10 mg/kg in 0.25% CMC) treated
Mice in Groups 2, 3, 4 and 5 were challenged with an aerosol of LPS (E. coli strain 026:B6) at a concentration of 300 μg/ml in normal saline for 30 minutes. Mice were placed in a Plexiglas chamber (20×20×10 cm^3) and exposed to an aerosol generated from a nebulizer (Omtron model, USA) with an airflow rate of 9 L/min. Group 1(Control) mice were challenged with saline alone.
Mice were treated with either vehicle or RS—Z thirty minutes after the LPS challenge. Mice in group 1 (control) and Group 2 (LPS challenged) were vehicle (0.25% CMC) treated intraperitoneally (i.p.). Mice in Group 3 were treated with RS—Z at a dose of 0.1 mg/kg body weight by i.p. injection. Mice in Group 4 were treated with RS—Z at a dose of 1.0 mg/kg body weight by i.p. injection. Group 5 were treated with RS—Z at a dose of 10 mg/kg body weight by i.p. injection.
Mice were sacrificed three hrs after the LPS challenge using an overdose of sodium pentothal (100 mg/kg, i.p.). The trachea were cannulated and 0.5 ml of PBS (phosphate buffered saline) was used for lavage at a time and this step was repeated three times. About 1.5 ml of BAL fluid was recovered per mouse. The BAL fluid was centrifuged (400×g, 4° C., 6 min) and the supernatant was kept at −70° C. until analyzed for biochemical parameters. The BAL cells were washed three times with PBS and the pellet was resuspended in 200 μl cold PBS. For total cell counts, BAL cell suspension was diluted 1:20 in PBS and cells were counted in a hemocytometer. For differential counts, BALF cell suspension smear was made on glass slides followed by Leishman's stain. The cells were identified and counted by standard methodology. At least 300 cell (all types) per slide were counted and the percentage of neutrophils was calculated.
The excised lung portions from all the groups was fixed in 10% Buffered formalin. The fixed tissue was embedded in paraffin, sectioned into 4 μm and stained with haematoxylin-eosin for observation under the light microscope. The injury was scored with a semi-quantitative grading system based on the structure changes edema, alveolar and interstitial hemorrhage and inflammatory cells sequestration (Matthay M A, Zimmerman G A, Esmon C, Bhattacharya J, Caller B, et al. (2003) Future research directions in acute lung injury: Summary of a National Heart, Lung, and Blood Institute working group. Am J Respir Crit. Care Med 167: 1027-1035). Semi-quantitative grading system was a 0-to-4 point grading system: 0=No injury, 1=25% injury in a light microscope field, 2=50% injury in a light microscope field, 3=75% injury in a light microscope field, 4= almost 100% injury in a light microscope field. Five light microscopic fields were analyzed for a particular pathological specimen to determine mice lung injury score.

[5] = reference compound, value in mM
[6] = vs. LPS aerosol/vehicle IP, listed as formula 1a

IC50 [2] | SMILES | Max. tolerable dose ([1]; 24 hrs, MTT) | Neutrophil Adhesion Inhibition IC50 [3] | Efficacious Dose (acute lung Injury model) | further results
0.178 ± 0.00081 mM | CCCOC(=O)CCCC(Sc1ccccn1)C(=O)OC (stereo not drawn) [AD-20, 2-(2-pyridylthio)-hexanedioic acid 1-methyl ester 6-propyl ester] | 0.25 mM | not significant | – | –
0.117 ± 0.00092 mM | COC(=O)C(CCCC(=O)OC1CCCCC1)Sc1ccccn1 (stereo not drawn) [AD-21, 2-(2-pyridylthio)-hexanedioic acid 6-cyclohexyl ester 1-methyl ester] | 0.25 mM | not significant | – | –
0.1 ± 0.00096 mM | CCOC(=O)CCCCCCCC(Sc1ccccn1)C(=O)OC (stereo not drawn) [AD-32, 2-(2-pyridylthio)-decanedioic acid-10-ethyl ester 1-methyl ester] | 0.25 mM | not significant | – | –
0.085 ± 0.00152 mM | CCCCCOC(=O)CCCC(Sc1ccccn1)C(=O)OC (stereo not drawn) [AD—Z, 2-(2-pyridylthio)-hexanedioic acid-1-methyl ester 6-pentyl ester] | 0.25 mM | not significant | – | –
– | CC(=O)N[C@@H](CS)C(=O)O [NAC, N-acetyl cysteine, reference compound] | – | not significant | 150 mg/kg | Max. tolerable dose [1, 5]: 20 mM; IC50 [2, 5]: 6.68 mM
0.079 ± 0.00073 mM | CCCCOC(=O)CCSc1ccccn1 [RS-20, 3-(2-pyridylthio)propionic acid butyl ester] | 0.5 mM | – | – | IC50 [3]: 85 ± 0.94 µM
0.135 ± 0.00082 mM | O=C(CCSc1ccccn1)OC1CCCCC1 [RS-21, 3-(2-pyridylthio)propionic acid cyclohexyl ester] | 0.25 mM | not significant | – | –
0.097 ± 0.00063 mM | CCOC(=O)CCCCCCSc1ccccn1 [RS-32, 7-(2-pyridylthio)heptanoic acid ethyl ester] | 0.5 mM | – | – | IC50 [3]: 94 ± 0.92 µM
– | COc1ccc(C2CNC(=O)C2)cc1OC1CCCC1 (stereo not drawn) [Rolipram] | – | – | 5 mg/kg | –
– | O=C1CCC(N2C(=O)c3ccccc3C2=O)C(=O)N1 (stereo not drawn) [Thalidomide, α-N-phthalimidoglutarimide] | – | – | 100 mg/kg | –
– | Cc1c(C)c2c(c(C)c1O)CCC(C)(C[C@H]1O[C@H](CO)[C@@H](O)[C@H](O)[C@H]1O)O2 (stereo partly drawn) [Water-soluble Vitamin E derivative, (α-D-glucopyranosyl)methyl-2,5,7,8-(tetramethyl)chroman-6-ol] | – | – | 10 mg/kg | –

SMILES | IC50 [2] | Max. tolerable dose ([1]; 24 hrs, MTT) | Neutrophil Adhesion Inhibition IC50 [3] | Efficacious Dose (acute lung Injury model) | further results
CCCCCOC(=O)CCSc1ccccn1 [RS—Z, 3-(2-pyridylthio)propionic acid pentyl ester] | 0.05 mM | 0.5 mM | – | – | IC50 [3]: 61 µM; Lung injury caused by bacterial polysaccharide challenge ([4]; 10 mg/kg body weight): significantly reduced; Pulmonary neutrophil infiltration ([4]; 10 mg/kg body weight intraperitoneally): significantly alleviate; Efficacious Dose ([4]; acute lung injury model, mice, i.p.): 10 mg/kg; Total cell counts in the BALF ([4]; post-treatment IP 0.1, 1, 10 mg/kg, vs. LPS aerosol/vehicle IP, FIG. 2A): dose-dependently reduced; Neutrophil count in the BALF / neutrophil influx in the lungs ([4]; vs. LPS aerosol/vehicle IP): reduction of the neutrophil influx; also recorded: dose-dependently reduced; Neutrophil count in the BALF / neutrophil influx in the lungs [4, 6]: Reduction of the neutrophil influx; Lung injury score / LPS-induced lung injury ([4]; vs. LPS aerosol/vehicle IP): attenuation of the LPS-induced lung injury; also recorded: dose-dependently reduced; Lung injury score / LPS-induced lung injury [4, 6]: Attenuation of the LPS-induced lung injury
